This note sets out measurements from US9975878B2, “Substituted triazine BMI-1 inhibitors” (PTC Therapeutics, Inc., priority 2013, dated 2018).

The subject of this experiment is Bmi-1 protein. In words: Sandwich ELISA Assay: Bmi-1 protein level in HT-1080 cells treated with test compounds. The experiment is classed as cell-based. Here is the method:
Cell Seeding and Compound Treatment (Day 1):
HT-1080 cells were seeded at 8000 cells/well (50 μL) in 96-well tissue culture plates. After the cells became adherent (3-4 hours), 2× diluted stocks of test compounds in 50 μL DMEM containing 1% DMSO (final DMSO concentration was 0.5%) were added and the plates were incubated at 37° C. under 5% CO2 for 40-48 hours.
ELISA Plate First Antibody Preparation (Day 2):
The First Antibody (Millipore Mouse, monoclonal to mouse Bmi-1, clone F6, catalog #05-637) diluted to 2 μg/mL in PBS was added (100 μL) to each well of a Nunc MaxiSorp 96-well ELISA plate. The plate was covered with a plate seal and allowed to stand overnight.
Cell Lysate Preparation (Day 3):
Fresh Lysis buffer (1×) was prepared on the day of the assay as follows: 1 mM EDTA, 150 mM NaCl, 0.5% Triton-X 100, 10 mM NaF, 20 mM B-Glycerophosphate, 1 mM DTT (in PBS, pH 7.2-7.4) and HALT protease inhibitor cocktail (1×) (Pierce #78410).
Lysis Buffer (1×, 40 μL) was added to each well and the plate was shaken for 5-10 minutes on an orbital shaker to allow cell lysis, then diluent (1% BSA in PBS in 0.5% NP40) (100 μL) was added to each well.
A standard curve was prepared at the following Bmi-1 concentrations: 8000, 4000, 2000, 1000, 500, 250, 125 and 0 pg/mL. The Bmi-1 Recombinant Protein Standard (Novus Biologicals PCGF4 Recombinant Protein (P01), catalog # H00000648-P01) used to prepare the standard curve was stored at −80° C. On first thaw, the Recombinant Protein Standard was diluted to 10 μg/μL in Blocking Buffer (1% BSA in PBS; BSA: Fisher Scientific Catalog #1600-100). Aliquots were taken and refrozen at −80° C. The aliquots may be kept at 4° C. and reused after first thaw, but only within 1-2 weeks. The Recombinant Protein Standard contains a GST-fusion tag that appears at approximately 70 Kda on Western Blot.
The prepared ELISA plate was washed 3× with Wash Buffer (0.05% Tween-20 in PBS). The final wash was removed from the plate and the plate was blotted dry. Blocking Buffer (300 μL) (1% BSA in PBS) was added to each well. The plate was covered with a plate seal and incubated at room temperature for 1 hour. The blocked plate was washed 3× with Wash Buffer, then the final wash was removed and the plate was blotted dry. The previously prepared samples and standards were added (100 μL/well) and the plate was covered with a plate seal and incubated at 4° C. overnight.
The prepared ELISA plate was removed from incubation and allowed to stand at room temperature for 30 minutes, then washed and blotted dry. The Second Antibody (Cell Signaling Rabbit anti-Bmi-1, Cat# 2830) diluted to 1:600 in Blocking Buffer was added (100 μL) to each well, except as needed for background control wells. The plate was covered with a plate seal and incubated for 1.5 hrs at room temperature.
The ELISA plate was washed and blotted dry as previously described. The Third Antibody (Cell Signaling HRP conjugated anti-rabbit IgG (CellSignaling, Cat#:7074) diluted to 1:300 in Blocking Buffer was added (100 μL) to each well, except as needed for background control wells. The plate was incubated for 1 hr at room temperature.
The plate was washed and blotted dry, then a previously prepared TMB substrate (TMB substrate kit, Pierce catalog #34021) (prepared by mixing kit reagents 1:1) (100 μL) was added per well. The plate was incubated for 20-30 minutes at room temperature in the dark, then Stop Solution (2 M sulfuric acid in water) (50 μL) was added per well. The plates were read at OD450 (experimental) and OD570 (reference).
(An ELISA detects its analyte on a solid surface through an enzyme-linked reagent.)
One may read the EC50 as the concentration needed to bring the measured effect to its halfway point. High values mean weaker potency, low ones greater potency. Compound `Cc1ccc(Nc2nc(N)nc(-n3c(C)nc4ccc(F)cc43)n2)cc1` [Cpd 165, 6-(6-fluoro-2-methyl-1H-benzimidazol-1-yl)-N-(4-methylphenyl)-1,3,5-triazine-2,4-diamine] gave an EC50 of 1 to 10 nM. For the compound `CCc1nc2cc(F)c(F)cc2n1-c1nc(N)nc(Nc2ccc(C(F)(F)F)cc2)n1` [Cpd 116, 6-(2-ethyl-5,6-difluoro-1H-benzimidazol-1-yl)-N-[4-(trifluoromethyl)phenyl]-1,3,5-triazine-2,4-diamine], the EC50 fell in the range of 100 to 3000 nM. The value for `CCc1nc2ccccc2n1-c1nc(N)nc(Nc2ccc(C#N)cc2)n1` [Cpd 163, 4-{[4-amino-6-(2-ethyl-1H-benzimidazol-1-yl)-1,3,5-triazin-2-yl]amino}benzonitrile] was 100 to 3000 nM; that for `Cc1nc2ccccc2n1-c1nc(N)nc(Nc2ccc(Cl)cc2)n1` [Cpd 150, N-(4-chlorophenyl)-6-(2-methyl-1H-benzimidazol-1-yl)-1,3,5-triazine-2,4-diamine] was 10 to 100 nM; that for `Cc1nc2ccc(F)cc2n1-c1nncc(Nc2ccc(C(F)(F)F)cc2)n1` [Cpd 130, 3-(6-fluoro-2-methyl-1H-benzimidazol-1-yl)-N-[4-(trifluoromethyl)phenyl]-1,2,4-triazin-5-amine] was 100 to 3000 nM.

The compound `Cc1nc2ncc(Cl)cc2n1-c1nc(N)nc(Nc2ccc(OC(F)F)c(F)c2)n1` [Cpd 41, 6-(6-chloro-2-methyl-1H-imidazo[4,5-b]pyridin-1-yl)-N-[4-(difluoromethoxy)-3-fluorophenyl]-1,3,5-triazine-2,4-diamine] returned an EC50 of 10 to 100 nM. With `Nc1nc(Nc2ccc(OC(F)F)cc2)nc(-c2c(C(F)(F)F)nc3ccccn23)n1` [Cpd 72, N-[4-(difluoromethoxy)phenyl]-6-[2-(trifluoromethyl)imidazo[1,2-a]pyridin-3-yl]-1,3,5-triazine-2,4-diamine], the EC50 lay in the range of 10 to 100 nM. The value for `COc1ccc(Nc2nc(N)nc(-n3c(C)nc4c(F)cc(F)cc43)n2)cc1` [Cpd 185, 6-(4,6-difluoro-2-methyl-1H-benzimidazol-1-yl)-N-(4-methoxyphenyl)-1,3,5-triazine-2,4-diamine] was 1 to 10 nM.

`COc1ccc(Nc2nncc(-n3c(C)nc4ccccc43)n2)cc1` [Cpd 204, N-(4-methoxyphenyl)-5-(2-methyl-1H-benzimidazol-1-yl)-1,2,4-triazin-3-amine] yielded an EC50 of 1 to 10 nM.

Consider `Cc1nc2ccccc2n1-c1nc(N)nc(Nc2ccc3[nH]ccc3c2)n1` [Cpd 7, N-(1H-indol-5-yl)-6-(2-methyl-1H-benzimidazol-1-yl)-1,3,5-triazine-2,4-diamine], for which the EC50 lay within 1 to 10 nM. The value for `CCc1nc2ccccc2n1-c1cnnc(Nc2ccc(OC)cc2)n1` [Cpd 205, 5-(2-ethyl-1H-benzimidazol-1-yl)-N-(4-methoxyphenyl)-1,2,4-triazin-3-amine] was 1 to 10 nM. The value for `Nc1nc(Nc2ccc(Cl)cc2)nc(-n2c(C3CC3)nc3c(F)cccc32)n1` [Cpd 184, N-(4-chlorophenyl)-6-(2-cyclopropyl-4-fluoro-1H-benzimidazol-1-yl)-1,3,5-triazine-2,4-diamine] was 10 to 100 nM; that for `COc1ccc(Nc2cnnc(-n3c(C)nc4ccccc43)n2)cc1` [Cpd 144, N-(4-methoxyphenyl)-3-(2-methyl-1H-benzimidazol-1-yl)-1,2,4-triazin-5-amine] was 1 to 10 nM; that for `Cc1nc2cc(F)c(F)cc2n1-c1nc(N)nc(Nc2ccc(OC(F)F)cc2)n1` [Cpd 11, N-[4-(difluoromethoxy)phenyl]-6-(5,6-difluoro-2-methyl-1H-benzimidazol-1-yl)-1,3,5-triazine-2,4-diamine] was 10 to 100 nM. In turn, `CCc1nc2ncc(F)cc2n1-c1nc(N)nc(Nc2ccc(OC(F)F)cc2)n1` [Cpd 79, N-[4-(difluoromethoxy)phenyl]-6-(2-ethyl-6-fluoro-1H-imidazo[4,5-b]pyridin-1-yl)-1,3,5-triazine-2,4-diamine] registered an EC50 of 10 to 100 nM. The value for `Cc1nc2ccc(Cl)cc2n1-c1nc(N)nc(Nc2ccc(OC(F)F)cc2)n1` [Cpd 81, 6-(6-chloro-2-methyl-1H-benzimidazol-1-yl)-N-[4-(difluoromethoxy)phenyl]-1,3,5-triazine-2,4-diamine] was 10 to 100 nM; that for `CCc1nc2c(F)cc(F)cc2n1-c1nc(N)nc(Nc2ccc(Cl)cc2)n1` [Cpd 190, N-(4-chlorophenyl)-6-(2-ethyl-4,6-difluoro-1H-benzimidazol-1-yl)-1,3,5-triazine-2,4-diamine] was 10 to 100 nM; that for `COc1ccc(Nc2nc(N)nc(-n3c(C4CC4)nc4cc(F)ccc43)n2)cc1` [Cpd 191, 6-(2-cyclopropyl-5-fluoro-1H-benzimidazol-1-yl)-N-(4-methoxyphenyl)-1,3,5-triazine-2,4-diamine] was 10 to 100 nM. The value for `Cc1nc2ccc(F)cc2n1-c1nc(N)nc(Nc2ccc(OC(F)(F)F)cc2)n1` [Cpd 172, 6-(6-fluoro-2-methyl-1H-benzimidazol-1-yl)-N-[4-(trifluoromethoxy)phenyl]-1,3,5-triazine-2,4-diamine] was 100 to 3000 nM; that for `CCc1nc2ccc(F)cc2n1-c1nc(N)nc(Nc2ccc(OC)cc2)n1` [Cpd 168, 6-(2-ethyl-6-fluoro-1H-benzimidazol-1-yl)-N-(4-methoxyphenyl)-1,3,5-triazine-2,4-diamine] was 1 to 10 nM; that for `CCc1nc2ccc(F)cc2n1-c1cnnc(Nc2ccc(OC(F)F)cc2)n1` [Cpd 137, N-[4-(difluoromethoxy)phenyl]-5-(2-ethyl-6-fluoro-1H-benzimidazol-1-yl)-1,2,4-triazin-3-amine] was 100 to 3000 nM.

Take `Cc1ccc(Nc2nc(N)nc(-n3c(C)nc4c(F)cc(F)cc43)n2)cc1` [Cpd 186, 6-(4,6-difluoro-2-methyl-1H-benzimidazol-1-yl)-N-(4-methylphenyl)-1,3,5-triazine-2,4-diamine]: the EC50 is 1 to 10 nM.

For `Cc1nc2cc(Cl)ccc2n1-c1nc(N)nc(Nc2ccc(OC(F)F)cc2)n1` [Cpd 80, 6-(5-chloro-2-methyl-1H-benzimidazol-1-yl)-N-[4-(difluoromethoxy)phenyl]-1,3,5-triazine-2,4-diamine], the EC50 was in the range of 100 to 3000 nM.

Consider `Cc1nc2ncc(F)cc2n1-c1nc(N)nc(Nc2ccc(OC(F)F)cc2)n1` [Cpd 78, N-[4-(difluoromethoxy)phenyl]-6-(6-fluoro-2-methyl-1H-imidazo[4,5-b]pyridin-1-yl)-1,3,5-triazine-2,4-diamine], for which the EC50 was in the range of 100 to 3000 nM. For `Cc1nc2cc(F)c(F)cc2n1-c1nc(N)nc(Nc2ccc(Cl)cc2)n1` [Cpd 196, N-(4-chlorophenyl)-6-(5,6-difluoro-2-methyl-1H-benzimidazol-1-yl)-1,3,5-triazine-2,4-diamine], the EC50 was 100 to 3000 nM. The value for `Cc1nc2ccc(F)cc2n1-c1cnnc(Nc2ccc(C(F)(F)F)cc2)n1` [Cpd 126, 5-(6-fluoro-2-methyl-1H-benzimidazol-1-yl)-N-[4-(trifluoromethyl)phenyl]-1,2,4-triazin-3-amine] was 100 to 3000 nM; that for `Nc1nc(Nc2ccc(OC(F)F)cc2)nc(-c2c(C(F)(F)F)nc3ccc(F)cn23)n1` [Cpd 73, N-[4-(difluoromethoxy)phenyl]-6-[6-fluoro-2-(trifluoromethyl)imidazo[1,2-a]pyridin-3-yl]-1,3,5-triazine-2,4-diamine] was 10 to 100 nM.
